Measured values as given in article PMC9246016 (Pharmaceutical Biology, 2022).

Assays:
[1] = target: T1, recombinant human CYP2C8 (RHCYP2C8) (Homo sapiens, UniProt P10632); assay: Inhibition of RHCYP2C8 yeast microsomes, probe substrate amodiaquine; conditions: for inhibitor intensity classification for CYP2C8: class by IC50, general rules (Testa 2007)
T1 sequence (P10632 1-490): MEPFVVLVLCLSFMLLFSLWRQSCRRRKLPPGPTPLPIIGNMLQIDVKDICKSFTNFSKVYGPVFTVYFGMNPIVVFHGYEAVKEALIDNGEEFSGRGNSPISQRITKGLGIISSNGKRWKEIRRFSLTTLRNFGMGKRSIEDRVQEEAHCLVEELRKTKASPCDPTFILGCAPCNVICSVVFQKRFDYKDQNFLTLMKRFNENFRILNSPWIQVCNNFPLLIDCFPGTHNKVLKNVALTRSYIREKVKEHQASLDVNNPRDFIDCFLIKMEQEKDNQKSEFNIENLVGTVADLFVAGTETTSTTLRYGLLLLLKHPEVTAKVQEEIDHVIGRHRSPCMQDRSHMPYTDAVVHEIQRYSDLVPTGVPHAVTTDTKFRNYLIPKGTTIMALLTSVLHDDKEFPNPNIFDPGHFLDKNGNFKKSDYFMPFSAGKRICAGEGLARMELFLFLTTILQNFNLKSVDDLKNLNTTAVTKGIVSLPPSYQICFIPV
Procedure: (§1) RHCYP2C8 and RHCYP2C9 yeast microsomes were extracted using the glass bead crushing method and differential centrifugation, with grinding 15 times by 0.5 g glass beads and centrifugation at 9,000 g for 20 min at 4 °C. The supernatant was then centrifuged at 100,000 g at 4 °C (BECKMAN COULTER Optima™ L-80 XP Ultracentrifuge) for 1 h, and the precipitation was RHCYP2C8 or RHCYP2C9 yeast microsome. Reconstituted with potassium phosphate buffer (pH 7.4), the microsome solution was collected and stored at −80 °C for subsequent examination. Protein concentrations of microsomes were determined using the Lowry method.
Amodiaquine and diclofenac are typical CYP2C8 and CYP2C9 probe substrates, respectively. […] The 0.4 mL incubation mixtures contained inhibitors (0–500 μmol/L), potassium phosphate buffer (pH 7.4) in common, and RHCYP2C8 (12.4 mg/mL) with amodiaquine or RHCYP2C9 (4.6 mg/mL) with diclofenac. […] The reactions were initiated by the addition of NADPH with pre-incubation 10 min in advance and carried out for 40 min.
(§2) The CYP2C8 sample treatment process was that incubation was terminated by adding 200 μL of methanol. Samples were centrifuged at 12,000 rpm for 10 min, and the supernatant was subjected to HPLC. The CYP2C9 sample treatment process was that each sample (100 μL) was spiked with 10 μL of carbamazepine (30 μg/mL). The mixture was then extracted with 500 μL ethyl acetate by vortexing for 3 min and centrifuged at 12,000 rpm for 10 min. […] The residue was dissolved in 100 μL methanol for HPLC analysis.

[2] = target: recombinant human CYP2C9 (RHCYP2C9) (Homo sapiens, UniProt P11712); assay: Inhibition of RHCYP2C9 yeast microsomes, probe substrate diclofenac; conditions: for inhibitor intensity classification for CYP2C9: class by IC50, general rules (Testa 2007)
Procedure: as §1
Amodiaquine and diclofenac are typical CYP2C8 and CYP2C9 probe substrates, respectively. […] The reactions were initiated by the addition of NADPH with pre-incubation 10 min in advance and carried out for 40 min.
as §2

[3] = test system: CYP2C8; set-up: method as in Unger and Frank [2004]; conditions: ref Unger and Frank [2004]; read-out: IC50 for CYP2C8 (previous finding); cited from earlier work
[4] = test system: CYP2C9 and CYP3A4; set-up: method as in He and Edeki [2004]; conditions: inhibitory effects appear negligible; ref He and Edeki [2004]; cited from earlier work
[5] = Pharmacokinetics of ROS after 10-day multiple-dose GLT in rats; assay type: in vivo, Sprague-Dawley rats; conditions: ROS 10 mg/kg oral; for AUC(0-t) / Cmax / MRT / Tmax / half-life: male, Sprague-Dawley, rat, plasma, po, 10 mg/kg
[6] = Pharmacokinetics of ROS with single-dose GLT in rats; conditions: for CL/F / AUC(0-t) / Cmax / MRT / Tmax: ROS 10 mg/kg oral; for AUC(0-t) / Cmax / MRT / Tmax / half-life: male, Sprague-Dawley, rat, plasma, po, 10 mg/kg; for AUC(0-t): AUC0-t; for half-life: t1/2, ROS 10 mg/kg oral; for extension of MRT vs control: ROS 10 mg/kg
[7] = multiple-dose GLT 100 mg/kg for 10 days
[8] = multiple-dose GLT 200 mg/kg for 10 days

recombinant human CYP2C9 (RHCYP2C9), sequence (P11712 whole entry): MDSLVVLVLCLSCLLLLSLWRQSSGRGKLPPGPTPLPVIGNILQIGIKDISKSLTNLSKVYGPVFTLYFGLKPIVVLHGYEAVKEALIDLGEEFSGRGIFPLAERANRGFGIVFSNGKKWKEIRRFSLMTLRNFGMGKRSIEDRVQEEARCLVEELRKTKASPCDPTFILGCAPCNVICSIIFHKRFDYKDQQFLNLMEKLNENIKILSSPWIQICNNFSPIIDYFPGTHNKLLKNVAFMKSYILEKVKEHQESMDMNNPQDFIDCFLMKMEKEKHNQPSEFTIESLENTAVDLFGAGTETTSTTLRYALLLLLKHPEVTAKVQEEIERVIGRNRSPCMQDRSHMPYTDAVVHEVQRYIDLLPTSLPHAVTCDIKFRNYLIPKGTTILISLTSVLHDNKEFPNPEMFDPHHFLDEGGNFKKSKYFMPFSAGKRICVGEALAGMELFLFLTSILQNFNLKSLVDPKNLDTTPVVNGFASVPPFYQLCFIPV

Question: Which results are given for `O=c1c(O)c(-c2ccc(O)c(O)c2)oc2cc(O)cc(O)c12` [quercetin]?
Answer: inhibitor intensity classification for CYP2C8 [1]: moderate (moderate inhibitors are between 1 and 10 μmol/L); inhibitor intensity classification for CYP2C9 [2]: weak (weak inhibitors are over 10 μmol/L); IC50 [3]: […]

Question: With `O=c1c(O)c(-c2ccc(O)cc2)oc2cc(O)cc(O)c12` [kaempferol] as the compound, how does the IC50 [1] read?
Answer: Its IC50 is 7.67 µM.

Question: And the “inhibitor intensity classification for CYP2C8” value [1]?
Answer: The value was “moderate (moderate inhibitors are between 1 and 10 μmol/L)”.

Question: And the IC50 [2]?
Answer: Its IC50 is 7.57 µM.

Question: And the “inhibitor intensity classification for CYP2C9” value [2]?
Answer: Its value is “moderate (moderate inhibitors are between 1 and 10 μmol/L)”.

Question: With ginkgolide B as the compound, how does the “concentrations at which effects are pronounced” value [4] read?
Answer: The value was “greater than 100 μmol/L”.

Question: What does the source list for `CN(CCOc1ccc(CC2SC(=O)NC2=O)cc1)c1ccccn1` (centres unmarked) [ROS, Rosiglitazone]?
Answer: CL/F ([5]; control (vehicle 10 days)): 13.92 ± 3.04 mL/h; CL/F [5, 7]: 25.54 ± 9.02 mL/h; CL/F [5, 8]: 30.00 ± 8.52 mL/h; AUC(0-t) ([5]; control (vehicle 10 days)): 140 ± 45.5 µg·h/mL; Cmax ([5]; control (vehicle 10 days)): 38700 ± 9730 ng/mL; MRT ([5]; control (vehicle 10 days)): 3.27 ± 0.65 h; Tmax ([5]; control (vehicle 10 days)): 0.79 ± 0.4 h; half-life ([5]; control (vehicle 10 days)): 2.75 ± 0.7 h; AUC(0-t) [5, 7]: 84.6 ± 39.9 µg·h/mL; Cmax [5, 7]: 28500 ± 5560 ng/mL; MRT [5, 7]: 2.95 ± 1.13 h; Tmax [5, 7]: 0.54 ± 0.25 h; half-life [5, 7]: 1.99 ± 0.44 h; AUC(0-t) [5, 8]: 66.6 ± 15.9 µg·h/mL; Cmax [5, 8]: 28400 ± 4640 ng/mL; MRT [5, 8]: 2.13 ± 0.28 h; Tmax [5, 8]: 0.37 ± 0.13 h; half-life [5, 8]: 1.68 ± 0.35 h; CL/F ([6]; control (vehicle), single dose): 16.46 ± 1.91 mL/h; CL/F ([6]; single-dose GLT 100 mg/kg): 14.58 ± 2.12 mL/h; CL/F ([6]; single-dose GLT 200 mg/kg): 13.97 ± 3.43 mL/h; AUC(0-t) ([6]; control (vehicle), single dose): 117 ± 12.2 µg·h/mL; AUC(0-t) ([6]; single-dose GLT 100 mg/kg): 130 ± 24.3 µg·h/mL; AUC(0-t) ([6]; single-dose GLT 200 mg/kg): 139 ± 40.6 µg·h/mL; Cmax ([6]; control (vehicle), single dose): 29100 ± 5980 ng/mL; Cmax ([6]; single-dose GLT 100 mg/kg): 28800 ± 5860 ng/mL; Cmax ([6]; single-dose GLT 200 mg/kg): 26000 ± 6990 ng/mL; MRT ([6]; control (vehicle), single dose): 3.02 ± 0.28 h; MRT ([6]; single-dose GLT 100 mg/kg): 3.66 ± 0.63 h; MRT ([6]; single-dose GLT 200 mg/kg): 4.24 ± 1.04 h; Tmax ([6]; control (vehicle), single dose): 0.9 ± 0.34 h; Tmax ([6]; single-dose GLT 100 mg/kg): 1.01 ± 0.65 h; Tmax ([6]; single-dose GLT 200 mg/kg): 0.8 ± 0.26 h; half-life ([6]; control (vehicle), single dose): 2.14 ± 0.38 h; half-life ([6]; single-dose GLT 100 mg/kg): 2.79 ± 0.37 h; half-life ([6]; single-dose GLT 200 mg/kg): 3.26 ± 1.08 h; extension of MRT vs control ([6]; single-dose GLT 100 mg/kg): 21%; extension of MRT vs control ([6]; single-dose GLT 200 mg/kg): 40%

Question: With `COc1cc(-c2oc3cc(O)cc(O)c3c(=O)c2O)ccc1O` [isorhamnetin] as the compound, how does the IC50 [1] read?
Answer: The IC50 was 11.9 µM.

Question: What about the “inhibitor intensity classification for CYP2C8” value [1] of the same compound?
Answer: Its value is “weak (weak inhibitors are over 10 μmol/L)”.

Question: What about the IC50 [2] of the same compound?
Answer: Its IC50 is 4.59 µM.

Question: What about the “inhibitor intensity classification for CYP2C9” value [2] of the same compound?
Answer: Its value is “moderate (moderate inhibitors are between 1 and 10 μmol/L)”.
